According to ChEMBL document CHEMBL1817597, “Antifungal thiopeptide cyclothiazomycin B1 exhibits growth inhibition accompanying morphological changes via binding to fungal cell wall chitin” (Bioorg Med Chem, 2011):
Active and inactive are the calls of the source. The calls are words filed in the database; no cut-off is given here.

Tests used:
Mucor mucedo [1] = assay: Inhibition of RNA synthesis in Mucor mucedo IFO 7684 assessed as [8-14C]-adenine uptake into acid-insoluble fractions at 0.77 mM after 25 mins by liquid scintillation counting; assay type: functional; conditions: IFO 7684, 25 min
Mucor mucedo [2] = assay: Inhibition of DNA synthesis in Mucor mucedo IFO 7684 assessed as [8-14C]-adenine uptake into acid-insoluble fractions at 0.77 mM after 25 mins by liquid scintillation counting; assay type: functional; conditions: IFO 7684, 25 min
Mucor mucedo [3] = assay: Induction of morphological changes in Mucor mucedo IFO 7684 assessed as thickening of hyphae at 100 uM after 24 hrs by microscopic analysis; assay type: functional, organism-based
Mucor mucedo [4] = assay: Antimicrobial activity against Mucor mucedo IFO 7684 at 100 uM after 24 hrs by broth microdilution method; assay type: functional, organism-based
Mucor mucedo [5] = assay: Antifungal activity against Mucor mucedo IFO 7684 under hyperosmotic shock at 0.081 uM after 2 days by paper disc method; assay type: functional; conditions: IFO 7684, 48 h, read-out: DIZ
Fusarium oxysporum [6] = assay: Antifungal activity against Fusarium oxysporum NBRC 5942 under hypoosmotic shock assessed as increase of fragility of organism at 0.081 uM after 24 hrs measured after distilled water treatment for 10 mins by microscopic analysis; assay type: functional, organism-based
Fusarium oxysporum [7] = assay: Antifungal activity against Fusarium oxysporum NBRC 5942 under hyperosmotic shock at 0.081 uM after 2 days by paper disc method; assay type: functional; conditions: NBRC 5942, 48 h, read-out: DIZ
Mucor mucedo [8] = assay: Antifungal activity against Mucor mucedo IFO 7684 under hypoosmotic shock assessed as increase of fragility of organism at 0.081 uM after 24 hrs measured after distilled water treatment for 10 mins by microscopic analysis; assay type: functional, organism-based
Mucor mucedo [9] = assay: Inhibition of chitin synthase in Mucor mucedo IFO 7684 assessed as incorporation of GlcNAc from [14C]-UDP-GlcNAc into acid-insoluble fractions at 4 ug/ml after 55 mins by liquid scintillation counting
Mucor mucedo [10] = assay: Effect on cell wall re-generation in Mucor mucedo IFO 7684 spheroplasts under hyperosmotic condition at 0.081 uM up to 24 hrs by microscopic analysis; assay type: functional

O=c1[nH]cc(F)c(=O)[nH]1 [FLUOROURACIL]
inhibition at 770 µM (Mucor mucedo [1]): 75% | inhibition at 770 µM (Mucor mucedo [2]): 61%

CCCC(=O)Nc1ncnc2c1ncn2[C@@H]1O[C@@H]2COP(=O)(O)O[C@H]2[C@H]1OC(=O)CCC
Activity (Mucor mucedo [3]): inactive | Activity (Mucor mucedo [4]): inactive

CNCCNS(=O)(=O)c1cccc2cnccc12
Activity (Mucor mucedo [3]): inactive | Activity (Mucor mucedo [4]): inactive

C[C@@H]([C@H](N)C(=O)N[C@H](C(=O)O)[C@H]1O[C@@H](n2ccc(=O)[nH]c2=O)[C@H](O)[C@@H]1O)[C@H](O)c1ccc(O)cn1 [NIKKOMYCIN]
zone of inhibition at 0.081 µM (Mucor mucedo [5]): 23 mm | Activity (Fusarium oxysporum [6]): Active | zone of inhibition at 0.081 µM (Fusarium oxysporum [7]): 0 mm | Activity (Mucor mucedo [8]): Active | inhibition (Mucor mucedo [9]): 69% | Activity (Mucor mucedo [10]): inactive
